Laboratory results from patent publication US20240197871A1, “COMBINATION OF A CAR T CELL THERAPY AND AN IMMUNOMODULATORY COMPOUND FOR TREATMENT OF LYMPHOMA” (Juno Therapeutics, Inc., priority 2021, published 2024).

Test system: RL CD19+ tumor cells
Experiment: Cytolytic function: co-culture of anti-CD19 CAR T cells with RL CD19+ tumor cells
Assay type: cell-based
Details: E:T 1:1
Experimental: To do so, CAR T cells were plated on ploy-D-lysine plates. CD19+ tumor cells transduced with IncuCyte® NucLight Red (Essen BioScience Inc.) were then added to the CAR T cells in addition to Compound C or vehicle control. Tumor cell number was measured over multiple days.
Treatment with CAR T cells in combination with either immunomodulatory compound led to lower tumor cell numbers than did CAR T cells alone or the compounds alone.

## O=C1CC[C@H](N2Cc3c(OCc4ccc(CN5CCOCC5)cc4)cccc3C2=O)C(=O)N1 [Compound 2, (S)-3-[4-(4-morpholin-4-ylmethyl-benzyloxy)-1-oxo-1,3-dihydro-isoindol-2-yl]-piperidine-2,6-dione, reference compound]
Compound at 0.01 μM with anti-CD19 CAR T cells
  RL tumor cell number vs CAR T cells alone or compound alone: lower
Compound at 0.1 μM with anti-CD19 CAR T cells
  RL tumor cell number vs CAR T cells alone or compound alone: lower
